Like-named read-outs stand apart in the source and are kept apart here.

Data set [1] deals with red blood corpuscles. Nature of the data set: Fine opening passability of red blood corpuscles (nitrocellulose membrane filter, 3.0 μm). It is filed as cell-based, human. Particulars: 37° C., 30 minutes, 3.0 μm filter, 80 mmHg/cm^2.
Description: (§1) (1) One part by volume of human blood was mixed with 1 part by volume of a preservative solution (acid-citrate-dextrose solution) and preserved at 4° C. Just before using, it was washed 4 times with about 8 times by volume of a saline solution (2,000 rotations/minute, for 3 minutes) and a 2% saline floating solution of red blood corpuscles was prepared.
(§2) (2) A solution prepared by dissolving α1 -acid glycoprotein or a comparative substance shown in FIG. 1 in a saline solution was mixed with the same amount of the saline floating solution of red blood corpuscles, and the mixture was moderately shaked for 30 minutes at 37° C. 1 ml of the mixture was taken out and filtered by means of a nitrocellulose membrane filter (produced by Saltrius Co., diameter: 13 mm, diameter of fine openings: 3.0 μm) at 37° C. with pressing under 80 mmHg/cm^2. 0.5 ml of the filtrate was taken out and subjected to light centrifugal separation (1,500 rotations/minute, for 2 minutes). To the precipitate was added 5 ml of deionized water to cause hemolysis at a low tonicity, and a ratio of red blood corpuscles passing through the filter was calculated from the absorbance (420 nm) thereof. Further, percent hemolysis caused during the operation was calculated from the absorbance of the supernatant fluid of the filtrate.
Data set [2] concerns red blood corpuscles through fine blood vessels. Nature of the data set: Passability of red blood corpuscles through vital fine blood vessels (exposed rabbit mesentery, reduced blood pressure). It counts as in vivo.
Excerpt: A rabbit was subjected to laparotomy under urethane anesthesia to expose the mesentery and the passability of the red blood corpuscles through fine blood vessels was observed by means of a stereomicroscope.
In data set [3] the test system is red blood corpuscles.
Description: as §1, §2
Another data set relates to Mouse. Nature of the data set: Acute toxicity, mouse. It is filed as in vivo.
The test system of data set [4] is Human fetal lung fiber cell. Description: Toxicity to cultivated cells, human fetal lung fiber cell. It counts as cell-based.
Another data set has as its system HeLaS3. Description: Toxicity to cultivated cells, HeLaS3. It counts as cell-based.
Data set [5] has as its system EB virus transform lymphoblast P3HR-1. Nature of the data set: Toxicity to cultivated cells, P3HR-1. It counts as cell-based.
The next data set deals with Rat. Nature of the data set: Acute toxicity, rat. It is filed as in vivo.
The mark [6] stands for this setting: 100 μg-1 mg/kg, arterial blood pressure 40-60 mmHg/cm^2.

Turning to dextran sulfate [reference compound], in the data set with red blood corpuscles [1] (0.1% solution, compared with α1 -acid glycoprotein), the “passage of red blood corpuscles through the filter” value was “passage of the red blood corpuscles was observed too, but the effect was small as compared with the case of α1 -acid glycoprotein”. Also, the “stagnation of the blood flow and stopping of the blood corpuscles” value in data set [2] (in case of using dextran sulfate, reduced blood pressure) is “such stagnation of the blood flow and stopping of the blood corpuscles were not observed”. Also, in the data set with red blood corpuscles [3] (human, red blood cells), the “percent hemolysis in case of passing through fine openings” value fell in the range of 25 to 30%.

Take “α1 -acid glycoprotein: active ingredient of the present invention; substance known already, produced by the process described in Unexamined patent publication Sho 53-37187”: the LD50 with Mouse (intraperitoneally), in the data set with Mouse (intravenously), in the data set with Mouse (subcutaneously), with Rat (intraperitoneally), in the data set on Rat (intravenously) and with Rat (subcutaneously) was > 1,000 mg/kg each time. Moreover, the “Toxicity (50% Inhibition of propagation)” value (in data set [4]; in the data set with HeLaS3; in data set [5]) was greater than 100 µg/mL throughout. The “passage of red blood corpuscles through the filter” value with red blood corpuscles [1] (0.05% solution, saline control did not pass at all) was “the red blood corpuscles passed through the filter with hardly causing hemolysis”. Further, the “impilation of corpuscles and separation of the corpuscle component from the serum” value in data set [2] (setting [6]) is “impilation of corpuscles and separation of the corpuscle component from the serum were not observed”. Moreover, in data set [2] (setting [6]), the “movement of red blood corpuscles” value is on record as “the red blood corpuscles moved in the normal direction though the movement was slow”. Besides, the “passability of red blood corpuscles through fine blood vessels under reduced blood pressure” value in data set [2] (continuously into local dominating artery or into a vein, 100 μg-1 mg/kg, blood pressure reduced by blood-letting or pentobarbital) is reported as “the passability of red blood corpuscles was good”. Also, the “percent hemolysis in case of passing through fine openings” value in the data set with red blood corpuscles [3] (0.05% solution, saline alone as high as 20%) is listed as 5%.

For the origin of these results see patent US4362718A, “Agent for curing peripheral circulation insufficiency” (Yamanouchi Pharmaceutical Co., Ltd., priority 1979, dated 1982).
